Results reported in patent US8940754B2, “10′-fluorinated Vinca alkaloids provide enhanced biological activity against MDR cancer cells” (priority 2010, dated 2015).
Read-outs that look alike come from different tables or passages of the source.

Assays:
Test in all cases: cells
[1] = system: HCT116/VM46; assay type: cell-based, human
[2] = system: L1210; assay type: cell-based, mouse
[3] = system: HCT116; assay type: cell-based, human
[4] = Table 2C, side-by-side, multiple examinations with several independent samples; read-out: IC50 (nM) HCT116/VM46
[5] = Table 2C, side-by-side, multiple examinations with several independent samples; read-out: IC50 (nM) L1210
[6] = Homo sapiens, HCT-116/VM46; Table 1A, C16′-modified anhydrovinblastine analogues; read-out: IC50 (nM) HCT116/VM46
[7] = Mus musculus, L1210; Table 1A, C16′-modified anhydrovinblastine analogues; read-out: IC50 (nM) L1210
[8] = Homo sapiens, HCT-116; Table 1A, C16′-modified anhydrovinblastine analogues; read-out: IC50 (nM) HCT116
[9] = Homo sapiens, HCT-116/VM46; read-out: IC50 (nM) HCT116/VM46
[10] = Mus musculus, L1210; read-out: IC50 (nM) L1210
[11] = Homo sapiens, HCT-116; read-out: IC50 (nM) HCT116
[12] = Homo sapiens, HCT-116/VM46; Table 2A, C10′-substituted anhydrovinblastines, single evaluations; read-out: IC50 (nM) HCT116/VM46
[13] = Mus musculus, L1210; Table 2A, C10′-substituted anhydrovinblastines, single evaluations; read-out: IC50 (nM) L1210
[14] = Homo sapiens, HCT-116; Table 2A, C10′-substituted anhydrovinblastines, single evaluations; read-out: IC50 (nM) HCT116
[15] = Homo sapiens, HCT-116/VM46; Table 2B, C10′-substituted vinblastines, single evaluations; read-out: IC50 (nM) HCT116/VM46
[16] = Mus musculus, L1210; Table 2B, C10′-substituted vinblastines, single evaluations; read-out: IC50 (nM) L1210
[17] = Homo sapiens, HCT-116; Table 2B, C10′-substituted vinblastines, single evaluations; read-out: IC50 (nM) HCT116

SMILES: CC[C@]1(O)C[C@@H]2CN(CCc3c([nH]c4ccccc34)[C@@](C(=O)OC)(c3cc4c(cc3OC)N(C)[C@H]3[C@@](O)(C(=O)OC)[C@H](OC(C)=O)[C@]5(CC)C=CCN6CC[C@]43[C@@H]65)C2)C1 [Compound 1, Vinblastine, reference compound]
- IC50 ([1]; Table 1B, C16′-modified vinblastine analogues; read-out: IC50 (nM) HCT116/VM46): 600 nM
- IC50 ([1]; Table 2B, C10′-substituted vinblastines, single evaluations; read-out: IC50 (nM) HCT116/VM46): 600 nM
- IC50 [1, 4]: 600 nM
- IC50 ([2]; Table 1B, C16′-modified vinblastine analogues; read-out: IC50 (nM) L1210): 6 nM
- IC50 ([2]; Table 2B, C10′-substituted vinblastines, single evaluations; read-out: IC50 (nM) L1210): 6 nM
- IC50 [2, 5]: 6 nM

SMILES: CC[C@]1(O)C[C@H]2CN(CCc3c([nH]c4ccccc34)[C@@](C(=O)OC)(c3cc4c(cc3OC)N(C=O)[C@H]3[C@@](O)(C(=O)OC)[C@H](OC(C)=O)[C@]5(CC)C=CCN6CC[C@]43[C@@H]65)C2)C1 [Compound 2, Vincristine, reference compound]
- IC50 [1, 4]: 700 nM
- IC50 [2, 5]: 6 nM
- IC50 ([3]; Table 2C, side-by-side, multiple examinations with several independent samples; read-out: IC50 (nM) HCT116): 7 nM

SMILES: CCC1=C[C@@H]2CN(CCc3c([nH]c4ccccc34)[C@@](C(=O)OC)(c3cc4c(cc3OC)N(C)[C@H]3[C@@](O)(C(=O)OC)[C@H](OC(C)=O)[C@]5(CC)C=CCN6CC[C@]43[C@@H]65)C2)C1 [Compound 4a, anhydrovinblastine, reference compound]
- IC50 ([1]; Table 1A, C16′-modified anhydrovinblastine analogues; read-out: IC50 (nM) HCT116/VM46): 600 nM
- IC50 ([1]; Table 2A, C10′-substituted anhydrovinblastines, single evaluations; read-out: IC50 (nM) HCT116/VM46): 600 nM
- IC50 ([2]; Table 1A, C16′-modified anhydrovinblastine analogues; read-out: IC50 (nM) L1210): 65 nM
- IC50 ([2]; Table 2A, C10′-substituted anhydrovinblastines, single evaluations; read-out: IC50 (nM) L1210): 65 nM
- IC50 ([3]; Table 1A, C16′-modified anhydrovinblastine analogues; read-out: IC50 (nM) HCT116): 75 nM
- IC50 ([3]; Table 2A, C10′-substituted anhydrovinblastines, single evaluations; read-out: IC50 (nM) HCT116): 75 nM

SMILES: CCOC(=O)[C@]1(c2cc3c(cc2OC)N(C)C2C(O)(C(=O)OC)[C@H](OC(C)=O)[C@]4(CC)C=CCN5CC[C@]32[C@@H]54)C[C@@H]2C=C(CC)CN(CCc3c1[nH]c1ccccc31)C2 (stereo partly drawn) [Compound 5a]
- IC50 [1, 6]: 4100 nM
- IC50 [2, 7]: 620 nM
- IC50 [3, 8]: 640 nM

SMILES: CCOC(=O)[C@]1(c2cc3c(cc2OC)N(C)C2C(O)(C(=O)OC)[C@H](OC(C)=O)[C@]4(CC)C=CCN5CC[C@]32[C@@H]54)C[C@H]2CN(CCc3c1[nH]c1ccccc31)C[C@](O)(CC)C2 (stereo partly drawn) [Compound 5b]
- IC50 [1, 9]: 830 nM
- IC50 [2, 10]: 60 nM
- IC50 [3, 11]: 70 nM

SMILES: CCC1=C[C@@H]2CN(CCc3c([nH]c4ccccc34)[C@@](C#N)(c3cc4c(cc3OC)N(C)C3C(O)(C(=O)OC)[C@H](OC(C)=O)[C@]5(CC)C=CCN6CC[C@]43[C@@H]65)C2)C1 (stereo partly drawn) [Compound 6a]
- IC50 [1, 6]: 6800 nM
- IC50 [2, 7]: 6500 nM
- IC50 [3, 8]: 6100 nM

SMILES: CC[C@]1(O)C[C@@H]2CN(CCc3c([nH]c4ccccc34)[C@@](C#N)(c3cc4c(cc3OC)N(C)C3C(O)(C(=O)OC)[C@H](OC(C)=O)[C@]5(CC)C=CCN6CC[C@]43[C@@H]65)C2)C1 (stereo partly drawn) [Compound 6b]
- IC50 [1, 9]: 7400 nM
- IC50 [2, 10]: 630 nM
- IC50 [3, 11]: 670 nM

SMILES: CCC1=C[C@@H]2CN(CCc3c([nH]c4ccccc34)[C@@](C(N)=O)(c3cc4c(cc3OC)N(C)C3C(O)(C(=O)OC)[C@H](OC(C)=O)[C@]5(CC)C=CCN6CC[C@]43[C@@H]65)C2)C1 (stereo partly drawn) [Compound 7a]
- IC50 [1, 6]: > 10000 nM
- IC50 [2, 7]: > 10000 nM
- IC50 [3, 8]: > 10000 nM

SMILES: CC[C@]1(O)C[C@@H]2CN(CCc3c([nH]c4ccccc34)[C@@](C(N)=O)(c3cc4c(cc3OC)N(C)C3C(O)(C(=O)OC)[C@H](OC(C)=O)[C@]5(CC)C=CCN6CC[C@]43[C@@H]65)C2)C1 (stereo partly drawn) [Compound 7b]
- IC50 [1, 9]: > 10000 nM
- IC50 [2, 10]: > 10000 nM
- IC50 [3, 11]: > 10000 nM

SMILES: CCC1=C[C@@H]2CN(CCc3c([nH]c4ccccc34)[C@@](C=O)(c3cc4c(cc3OC)N(C)C3C(O)(C(=O)OC)[C@H](OC(C)=O)[C@]5(CC)C=CCN6CC[C@]43[C@@H]65)C2)C1 (stereo partly drawn) [Compound 8a]
- IC50 [1, 6]: > 10000 nM
- IC50 [2, 7]: 6300 nM
- IC50 [3, 8]: 7000 nM

SMILES: CC[C@]1(O)C[C@@H]2CN(CCc3c([nH]c4ccccc34)[C@@](CO)(c3cc4c(cc3OC)N(C)C3C(O)(C(=O)OC)[C@H](OC(C)=O)[C@]5(CC)C=CCN6CC[C@]43[C@@H]65)C2)C1 (stereo partly drawn) [Compound 11b]
- IC50 [1, 9]: > 10000 nM
- IC50 [2, 10]: 6500 nM
- IC50 [3, 11]: 5800 nM

SMILES: CCC1=C[C@@H]2CN(CCc3c([nH]c4ccc(C#N)cc34)[C@@](C(=O)OC)(c3cc4c(cc3OC)N(C)C3C(O)(C(=O)OC)[C@H](OC(C)=O)[C@]5(CC)C=CCN6CC[C@]43[C@@H]65)C2)C1 (stereo partly drawn) [Compound 15a, 10′-cyanoanhydrovinblastine]
- IC50 ([1]; Homo sapiens, HCT-116/VM46, read-out: IC50 (nM) HCT116/VM46): 920 nM
- IC50 ([2]; Mus musculus, L1210, read-out: IC50 (nM) L1210): 65 nM
- IC50 ([3]; Homo sapiens, HCT-116, read-out: IC50 (nM) HCT116): 70 nM

SMILES: CCC1=C[C@@H]2CN(CCc3c([nH]c4ccc(I)cc34)[C@@](C(=O)OC)(c3cc4c(cc3OC)N(C)C3C(O)(C(=O)OC)[C@H](OC(C)=O)[C@]5(CC)C=CCN6CC[C@]43[C@@H]65)C2)C1 (stereo partly drawn) [Compound 16a, 10′-iodoanhydrovinblastine]
- IC50 [1, 12]: 1800 nM
- IC50 [2, 13]: 620 nM
- IC50 [3, 14]: 600 nM

SMILES: CC[C@]1(O)C[C@@H]2CN(CCc3c([nH]c4ccc(I)cc34)[C@@](C(=O)OC)(c3cc4c(cc3OC)N(C)C3C(O)(C(=O)OC)[C@H](OC(C)=O)[C@]5(CC)C=CCN6CC[C@]43[C@@H]65)C2)C1 (stereo partly drawn) [Compound 16b, 10′-iodovinblastine]
- IC50 [1, 15]: 840 nM
- IC50 [2, 16]: 55 nM
- IC50 [3, 17]: 60 nM

SMILES: CCC1=C[C@@H]2CN(CCc3c([nH]c4ccc(Br)cc34)[C@@](C(=O)OC)(c3cc4c(cc3OC)N(C)C3C(O)(C(=O)OC)[C@H](OC(C)=O)[C@]5(CC)C=CCN6CC[C@]43[C@@H]65)C2)C1 (stereo partly drawn) [Compound 17a, 10′-bromoanhydrovinblastine]
- IC50 [1, 12]: 860 nM
- IC50 [2, 13]: 65 nM
- IC50 [3, 14]: 70 nM

SMILES: CC[C@]1(O)C[C@@H]2CN(CCc3c([nH]c4ccc(Br)cc34)[C@@](C(=O)OC)(c3cc4c(cc3OC)N(C)C3C(O)(C(=O)OC)[C@H](OC(C)=O)[C@]5(CC)C=CCN6CC[C@]43[C@@H]65)C2)C1 (stereo partly drawn) [Compound 17b, 10′-bromo-vinblastine]
- IC50 [1, 15]: 270 nM
- IC50 [2, 16]: 8 nM
- IC50 [3, 17]: 8.6 nM

SMILES: CCC1=C[C@@H]2CN(CCc3c([nH]c4ccc(Cl)cc34)[C@@](C(=O)OC)(c3cc4c(cc3OC)N(C)C3C(O)(C(=O)OC)[C@H](OC(C)=O)[C@]5(CC)C=CCN6CC[C@]43[C@@H]65)C2)C1 (stereo partly drawn) [Compound 18a, 10′-chloroanhydrovinblastine]
- IC50 [1, 12]: 800 nM
- IC50 [2, 13]: 60 nM
- IC50 [3, 14]: 70 nM

SMILES: CC[C@]1(O)C[C@@H]2CN(CCc3c([nH]c4ccc(Cl)cc34)[C@@](C(=O)OC)(c3cc4c(cc3OC)N(C)C3C(O)(C(=O)OC)[C@H](OC(C)=O)[C@]5(CC)C=CCN6CC[C@]43[C@@H]65)C2)C1 (stereo partly drawn) [Compound 18b, 10′-chlorovinblastine]
- IC50 [1, 15]: 720 nM
- IC50 [2, 16]: 6.2 nM
- IC50 [3, 17]: 7.6 nM

SMILES: CCC1=C[C@@H]2CN(CCc3c([nH]c4ccc(SC)cc34)[C@@](C(=O)OC)(c3cc4c(cc3OC)N(C)C3C(O)(C(=O)OC)[C@H](OC(C)=O)[C@]5(CC)C=CCN6CC[C@]43[C@@H]65)C2)C1 (stereo partly drawn) [Compound 20a, 10′-thiomethylanhydrovinblastine]
- IC50 [1, 12]: 770 nM
- IC50 [2, 13]: 60 nM
- IC50 [3, 14]: 85 nM

SMILES: CC[C@]1(O)C[C@@H]2CN(CCc3c([nH]c4ccc(SC)cc34)[C@@](C(=O)OC)(c3cc4c(cc3OC)N(C)C3C(O)(C(=O)OC)[C@H](OC(C)=O)[C@]5(CC)C=CCN6CC[C@]43[C@@H]65)C2)C1 (stereo partly drawn) [Compound 20b, 10′-thiomethylvinblastine]
- IC50 [1, 15]: 740 nM
- IC50 [2, 16]: 45 nM
- IC50 [3, 17]: 35 nM

SMILES: CCC1=C[C@@H]2CN(CCc3c([nH]c4ccc(C)cc34)[C@@](C(=O)OC)(c3cc4c(cc3OC)N(C)C3C(O)(C(=O)OC)[C@H](OC(C)=O)[C@]5(CC)C=CCN6CC[C@]43[C@@H]65)C2)C1 (stereo partly drawn) [Compound 21a, 10′-methylanhydrovinblastine]
- IC50 [1, 12]: 640 nM
- IC50 [2, 13]: 65 nM
- IC50 [3, 14]: 65 nM

SMILES: CC[C@]1(O)C[C@@H]2CN(CCc3c([nH]c4ccc(C)cc34)[C@@](C(=O)OC)(c3cc4c(cc3OC)N(C)C3C(O)(C(=O)OC)[C@H](OC(C)=O)[C@]5(CC)C=CCN6CC[C@]43[C@@H]65)C2)C1 (stereo partly drawn) [Compound 21b, 10′-methylvinblastine]
- IC50 [1, 15]: 600 nM
- IC50 [2, 16]: 7.8 nM
- IC50 [3, 17]: 7.8 nM

SMILES: CCC1=C[C@@H]2CN(CCc3c([nH]c4ccc(OC)cc34)[C@@](C(=O)OC)(c3cc4c(cc3OC)N(C)C3C(O)(C(=O)OC)[C@H](OC(C)=O)[C@]5(CC)C=CCN6CC[C@]43[C@@H]65)C2)C1 (stereo partly drawn) [Compound 22a, 10′-methoxyanhydrovinblastine]
- IC50 [1, 12]: 5500 nM
- IC50 [2, 13]: 550 nM
- IC50 [3, 14]: 640 nM
